Series [1] has as its system prelamin A. The experiment in a line: Western immunoblotting of prelamin A. Type of series: cell-based, human. Conditions: HGPS MSCs, optimal concentration. The protocol: Whole-cell lysates of MSC were collected, separated by SDS-PAGE, and transferred onto PVPF membrane by liquid transfer method. Blots were blocked in 10% skim milk (Bio-Rad) in tween 0.1% tris-buffered saline (TTBS) 1× one hour at room temperature. The primary antibodies used were a mouse anti-lamins A/C 1:200 (Millipore, JOL2), a rabbit anti-prelamin A 1/100 (ANTOO45, Diatheva) and a β-actin 1/200000 (Sigma). Membranes were incubated during the night at 4° C. Antigen-antibody binding was detected using horseradish peroxidaseconjugated species-specific secondary antibodies (GE-Healthcare, Little Chalfont, UK) followed by enhanced chemiluminescence Western blotting detection reagents (Perkin-Elmer, Waltham, USA).

Series [2] has as its system lamin A and progerin mRNA expression. The experiment in a line: Quantitative PCR of lamin A and progerin mRNA. The class given is cell-based, human. To be noted: HGPS MSCs, 48 h, normalized on DMSO 0.1%. How it is done:
Total RNA was isolated using RNeasy Mini extraction kit (Qiagen, Courtaboeuf, France) according to the manufacturer's protocol. An on-col DNase I digestion was performed to avoid genomic DNA amplification. RNA level and quality were checked using the Nanodrop technology. A total of 500 ng of RNA was used for reverse transcription using the Superscript III reverse transcription kit (Invitrogen). Q-PCR analysis was performed using a ABI 7900 system (Applied biosystem) and TaqMan gene expression Master Mix (Roche) following the manufacturer's instructions. Quantification of gene expression was based on the DeltaCt Method and normalized on 18S expression (Assay HS_99999901_S1). PCR primers were previously described by S. Rodriguez and colleagues (Rodriguez S et al., 2009, Eur J Hum Genet, VOL 17(7): 928-37). Primer sequences were lamin A (exons 11/12), 5′-[…]-3′ (SEQ N^o 1) and 5′-AGTTCTGGGGGCTCTGGGT-3′ (SEQ N^o 2); lamin C (exons 9/10), 5′-[…]-3′ (SEQ N^o 3) and 5′-CGGCGGCTACCACTCAC-3′ (SEQ ID N^o 4) and Progerin
(exons 11/12), 5′-ACTGCAGCAGCTCGGGG-3′ (SEQ N^o 5) and 5′-TCTGGGGGCTCTGGGC-3′ (SEQ ID N^o 6).
Taqman MGB probe sequences were lamin A (exon 11), 5′-ACTCGCAGCTACCG-3′ (SEQ N^o 7); lamin C (exon10), 5′-ATGCGCAAGCTGGTG-3′ (SEQ ID N^o 8) and Progerin (exon 11), 5′-CGCTGAGTACAACCT-3′ (SEQ ID N^o 9). […]

Series [3] relates to HDJ2. The experiment in a line: Western blot analysis of HDJ2 farnesylation. Type of series: cell-based, human. On the technique in general: Immunoblotting shows a protein as a band on a membrane.
In series [4] the test system is HGPS MSCs. The experiment in a line: Nuclear shape abnormalities (lamin A/C immunostaining). The class given is cell-based, human. Conditions: 48 h, lamin A/C staining. How it is done: (§1) In the 4-steps protocol, cells were fixed in 4% paraformaldehyde (15 minutes, room temperature) before permeabilization and blocking in PBS supplemented with 0.1% triton X-100 and 1% BSA (Sigma-Aldrich, St. Louis, USA). Primary antibodies were incubated one hour at room temperature in blocking buffer. Antibodies included mouse anti-lamins A/C (clone JOL2, Millipore, Billerica, USA), rabbit anti-prelamin A (ANTOO45, Diatheva) and anti-Ki67 (clone Ki-S5, MAB4190, Millipore, Billerica, USA). Cells were stained with the species-specific fluorophore-conjugated secondary antibody (Invitrogen) (one hour, room temperature) and nuclei were visualized with Hoechst 33342.

The test system of series [5] is HGPS MSCs. The experiment in a line: Osteogenic differentiation (alkaline phosphatase activity). The class given is cell-based, human. Conditions: 7 days of osteogenic differentiation. The protocol:
MSC were seeded at 600 cells per well in 384 well plate in MSC culture medium and treated as previously described. After 72 hours, MSC medium was replaced by STEMPRO osteogenic induction medium (Invitrogen) in presence or not of the different drugs. After 7 days of treatment, cells were fixed with ethanol 95% and stained by adding either a colorimetric substrate of the alkaline phosphatase, the 5-Bromo-4-chloro-3-indolyl phosphate/Nitro blue tetrazolium (NBT) (Sigma-Aldrich) or a chromogenic substrate of this enzyme (absorbance at 405 nm), the p-Nitrophenyl Phosphate (pNPP) (Pierce Biotechnology).

For series [6], the system named is HGPS MSCs. The experiment in a line: Cell proliferation (Ki-67 immunostaining). The class given is cell-based, human. To be noted: 48 h. How it is done:
as §1

The subject of series [7] is HGPS MSCs. The experiment in a line: ATP measurement (CellTiter Glo). The class given is cell-based, human. Conditions: 48 h. The protocol: HGPS and control MSC were seeded in a 96 well plates (3917, Corning) (5000 cells/well) and treated with the different drugs. After 48 hours of treatment in unique dose, ATP content was measured using CellTiter Glo® (Promega) accordingly to the manufacturer recommendations. Luminescence was measured with an Analyst GT multimode plate reader (Molecular devices). In parallel, Hoechst 33342 stained nuclei were counted in each well thanks to an automated microscope. The results exploited are given in the ratio between ATP measurement and the number of nuclei counted.
On the technique in general: Cellular ATP, detected with luciferase, serves as a proxy for viable cell number.

In series [8] the test system is HGPS MSCs. The experiment in a line: Live cell imaging (cell density). Type of series: cell-based, human. To be noted: 7 days. The protocol: HGPS MSCs were seeded at 2500 cells per well in 96-well plates and cultivated during 7 days in presence of the drugs. Cell density was monitored using an IncuCyte ZOOM microscope (Essen Bioscience). Each value corresponds to the mean of cell densities of four pictures taken in three independent wells.

The target of series [9] is T1, FPPS (Homo sapiens, UniProt P14324).
T1 sequence (P14324 1-419): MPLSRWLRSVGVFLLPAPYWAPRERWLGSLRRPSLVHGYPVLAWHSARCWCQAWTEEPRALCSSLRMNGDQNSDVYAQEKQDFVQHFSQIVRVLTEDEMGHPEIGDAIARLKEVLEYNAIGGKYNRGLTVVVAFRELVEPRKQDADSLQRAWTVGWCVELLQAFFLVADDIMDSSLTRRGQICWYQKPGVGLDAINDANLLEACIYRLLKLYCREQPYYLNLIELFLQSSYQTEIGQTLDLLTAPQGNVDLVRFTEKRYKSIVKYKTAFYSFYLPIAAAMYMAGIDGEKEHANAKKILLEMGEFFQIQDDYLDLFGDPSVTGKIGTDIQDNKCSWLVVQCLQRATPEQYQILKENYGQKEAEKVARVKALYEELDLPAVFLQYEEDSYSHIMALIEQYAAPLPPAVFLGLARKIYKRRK
The experiment in a line: Surface plasmon resonance on immobilized FPPS. The class given is binding. The protocol: Surface plasmon resonance (SPR) was measured using a BIAcore 3000 instrument at 25° C. FPPS (2800 RU) was immobilized on flow cells of a CM5-chip. The running buffer was HBSEP pH 7.4 (20 mM Hepes, 150 mM NaCl, and 0.005% P20). Regeneration was performed with 10 mM glycine, pH 3.0. […] Data were evaluated using Scrubber2 (Biologic software) and BIAeval software (BIAcore).
On the technique in general: In SPR one partner is held on a chip, and binding of the other changes the refractive index at the surface.

Series [10] concerns the target T2, FT (Homo sapiens, UniProt P49354+P49356).
T2 construct: Reactions were started by adding 40 μL of treated or untreated cell lysate; endogenous in cells; host or cells: HGPS MSCs (cell lysate)
The experiment in a line: FT activity assay (Farnesyltransferase [3H] SPA). Type of series: biochemical. To be noted: concentration inducing 50% of the maximum inhibiting effect of the compound. How it is done: (§2) Cell pellet of HGPS MSCs were resuspended in 25 mM Tris-HCl pH 7.4, 1 mM DTT, 1 mM MgCl2, 1 EDTA, 1 mM PMSF and centrifuged at 10,000×g for 10 min at 4° C. Protein content was determined using Lowry's method. Aliquots of cell lysate containing 100 μg of total proteins were incubated with tested substances at 37° C. for 30 min.
FT activity was determined by Famesyltransferase [3H] SPA enzyme assay (Amersham Life Science, Buckinghamshire, England). Briefly, FT activity was assayed in 20 μl of assay buffer containing 50 mmol/L Hepes, 30 mmol/L MgCl2, 20 mmol/L KCl and 5 mmol/L dithiothreitol, 20 μl of [3H]-FPP (12 pmol) and 20 μl of biotin lamin B. Reactions were started by adding 40 μL of treated or untreated cell lysate and incubated for 1 hour at 37° C. Reactions were stopped by the addition of 150 μL of stop reagent containing SPA bead and counted in a scintillation counter. FT activity was expressed as pmoles of incorporated [3H]-FPP into biotin lamin-B peptide per minute per milligram of total proteins (pmol/min/mg prot). Parallel samples were assayed to evaluate the total and the nonspecific radioactivity. In all experiments enzyme assays were carried out in triplicate.

Series [11] concerns the target T3, HMGCR (Homo sapiens, UniProt P04035).
T3 construct: oxidation of NADPH by the catalytic subunit of HMGCR in the presence of the substrate HMG CoA; purchased Sigma-Aldrich
T3 sequence (P04035 340-888 limits assumed): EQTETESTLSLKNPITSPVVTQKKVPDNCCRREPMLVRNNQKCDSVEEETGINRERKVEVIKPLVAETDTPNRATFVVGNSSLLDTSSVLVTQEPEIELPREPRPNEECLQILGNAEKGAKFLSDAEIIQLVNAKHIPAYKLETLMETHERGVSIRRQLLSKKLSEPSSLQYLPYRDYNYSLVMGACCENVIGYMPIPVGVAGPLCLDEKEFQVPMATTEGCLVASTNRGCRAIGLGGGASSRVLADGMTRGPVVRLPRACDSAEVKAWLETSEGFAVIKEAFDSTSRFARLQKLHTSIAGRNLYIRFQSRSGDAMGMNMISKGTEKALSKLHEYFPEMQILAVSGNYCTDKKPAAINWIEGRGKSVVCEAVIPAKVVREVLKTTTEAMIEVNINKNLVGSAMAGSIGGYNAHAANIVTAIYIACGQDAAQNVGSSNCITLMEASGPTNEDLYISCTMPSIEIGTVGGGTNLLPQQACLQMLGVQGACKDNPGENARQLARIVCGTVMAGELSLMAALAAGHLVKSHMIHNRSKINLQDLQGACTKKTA
The experiment in a line: HMGCR colorimetric activity assay. The class given is biochemical. How it is done: HMGCR activity was measured using GCoA Reductase Assay Kit (Sigma-Aldrich) according to the manufacturer's protocol. The assay is based on the spectrophotometric measurement of the decrease in absorbance at 340 nm, which represents the oxidation of NADPH by the catalytic subunit of HMGCR in the presence of the substrate HMG CoA.

The target in series [12] is T1, FPPS. The experiment in a line: FPPS activity assay. Further details: endogenous in cells; host or cells: HGPS MSCs (cell lysate). Conditions: concentration inducing 50% of the maximum inhibiting effect of the compound. The class given is biochemical. How it is done:
as §2
FPPS assay was carried out with some modifications of the procedure of Krisans et al. (Krisans et al., 1994, The Journal of biological chemistry VOL. 269: 14165-14169) and described by Gupta et al. (Gupta et al., 1999, Eur J Med Chem, VOL. 43: 2751-2767). Briefly, FPPS was assayed in 150 μL containing 25 mmol/L Hepes, pH=7, 2 mmol/L MgCl2, 1 mmol/L dithiothreitol, 5 mmol/L KF, 1% A noctyl-β-glucopyranoside, 3.3 μmol/L [4-14C] IPP (18 Ci/mmol), 3 μmol/L unlabeled IPP and 20 μmol/L geranyl diphosphate. Reactions were started by adding 40 μL of treated or untreated cell lysate and incubated for 45 min at 37° C. Reactions were stopped by the addition of 150 μL 2.5 mol/L HCl in 80% ethanol containing 100 μg/mL farnesol as a carrier. The samples were hydrolyzed for 30 min at 37° C. to convert the FPP to farnesol and neutralized by the addition of 150 μL of 10% NaOH. The reaction product (farnesol) was extracted into 1 mL of N-hexane and an aliquot (200 μL) of the organic phase was used for radioactivity counting. Parallel samples were assayed to evaluate the total and the nonspecific radioactivity. In all experiments, enzyme assays were carried out in triplicate.

Each structure is given as a SMILES string.

In the case of `Cc1cccc(N(C)c2cc(N3CCN(C(=O)Cc4c(-c5ccccc5)[nH]c5ccccc45)CC3)ncn2)c1` [Di-AP1, 1-{4-[6-(Methyl-m-tolyl-amino)-pyrimidin-4-yl]-piperazin-1-yl}-2-(2-phenyl-1H-indol-3-yl)-ethanone], the “prelamin A level (Western blot)” value in series [1] is “increased”. Further, the “lamin A and progerin mRNA expression” value in series [2] is on record as “increased”. Moreover, in [3], the “unfarnesylated form of HDJ2” value was “increase of the unfarnesylated form of the protein”. The “rescue of nuclear shape abnormalities” value in [4] is recorded as “not efficient”. Also, in [5], the “rescue of premature osteogenic differentiation (alkaline phosphatase activity)” value is on record as “not significantly different to those observed following FTI treatment”. Moreover, in series [6], the “number of Ki-67 positive cells” value is given as “up to 65%”. For the same molecule, the “ATP content (energetic metabolism)” value in series [7] is on record as “increased ATP content”.
In general, Kd refers to a measure of binding affinity in units of concentration. A word on the IC50: it is the concentration needed to halve the response being measured. Higher therefore signals weaker potency in that assay. For the molecule `N#CC(c1ccncc1)c1cc(N2CCN(C(=O)c3cccs3)CC2)ncn1` (centres unmarked) [Mono-AP2, Pyridin-4-yl-{6-[4-(thiophene-2-carbonyl)-piperazin-1-yl]-pyrimidin-4-yl}-acetonitrile], the “prelamin A level (Western blot)” value in [1] was “increased”. Also, in series [3], the “unfarnesylated form of HDJ2” value is “increase of the unfarnesylated form of the protein”. Moreover, the “rescue of nuclear shape abnormalities” value in series [4] is “restoring HGPS MSCs nuclear shape defects at levels not significantly different from the FTI tipifarnib”. Further, in series [8], the “cytostatic effect in long term live imaging cultures” value is reported as “less cytostatic than the FTI tipifarnib”. The “direct interaction with FPPS (SPR), in words” value in [9] is “confirmed the direct interactions”. Besides, the “Ka (1/M), association constant” value in series [9] (SPR, BIAcore 3000, 25° C.) turned out to be 5040 M⁻¹. Further, the Kd in [9] (SPR, BIAcore 3000, 25° C., read-out: Kd (M), equilibrium dissociation constant) stood at 0.0002 M. Moreover, the IC50 came to 9.32 µM in series [10] and 1.82 µM in series [12]. The “IC50 (μM) HMGCR” value in series [11] is “No inhibition”.

These data come from patent publication US10654838B2, “Aminopyridine compounds useful as inhibitors of protein prenylation” (INSTITUT NATIONAL DE LA SANTE ET DE LA RECHERCHE MEDICALE …, priority 2014, dated 2020).
